The term IC50 denotes the concentration that gives 50% inhibition. A word on the EC50: it is the concentration needed to bring the measured effect to its halfway point. As usually defined, the melting point is the temperature, or range, at which the solid turns liquid.

Structures are written as SMILES.

The values below come from US20080107623A1, “Inhibitors of Hepatitis C Virus” (Bristol-Myers Squibb Company, priority 2006, published 2008).

The target in data set [1] is T1, HCV NS3/4A protease complex, BMS strain (UniProt P27958, species not given/STRAIN_BMS).
T1 construct: said of H77 and J4L6S, not expressly of BMS; These are given for the H77 and J4L6S constructs only
T1 sequence (P27958 1027-1657, change not shown, one chain of several): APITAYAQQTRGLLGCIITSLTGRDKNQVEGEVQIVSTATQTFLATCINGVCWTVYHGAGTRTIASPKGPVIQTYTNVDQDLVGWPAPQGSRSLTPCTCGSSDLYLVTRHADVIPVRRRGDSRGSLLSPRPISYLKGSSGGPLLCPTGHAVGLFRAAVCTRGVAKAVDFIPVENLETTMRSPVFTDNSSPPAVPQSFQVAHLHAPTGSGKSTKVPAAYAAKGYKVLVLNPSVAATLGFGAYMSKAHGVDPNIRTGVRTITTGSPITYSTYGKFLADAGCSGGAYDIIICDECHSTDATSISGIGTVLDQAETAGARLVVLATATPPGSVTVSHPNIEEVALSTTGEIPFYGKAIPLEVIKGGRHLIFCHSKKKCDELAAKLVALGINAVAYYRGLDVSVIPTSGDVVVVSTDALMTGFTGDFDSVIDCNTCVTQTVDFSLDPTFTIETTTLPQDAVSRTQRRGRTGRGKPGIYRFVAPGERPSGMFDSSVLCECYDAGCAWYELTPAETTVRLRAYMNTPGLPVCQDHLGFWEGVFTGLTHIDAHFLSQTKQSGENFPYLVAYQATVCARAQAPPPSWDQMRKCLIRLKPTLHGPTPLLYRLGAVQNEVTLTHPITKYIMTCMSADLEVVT
Put plainly: FRET peptide assay to monitor HCV NS3/4A proteolytic activity (BMS strain). The note with it: NS3/4A BMS strain; read-out: IC50 Activity Range. It counts as biochemical, HCV genotype 1a. The source says:
HCV NS3 protease complexes, derived from the BMS strain, H77 strain or J4L6S strain, were generated, as described below. These purified recombinant proteins were generated for use in a homogeneous assay (see below) to provide an indication of how effective compounds of the present disclosure would be in inhibiting HCV NS3 proteolytic activity.
Serum from an HCV-infected patient was obtained from Dr. T. Wright, San Francisco Hospital. An engineered full-length cDNA (compliment deoxyribonucleic acid) template of the HCV genome (BMS strain) was constructed from DNA fragments obtained by reverse transcription-PCR (RT-PCR) of serum RNA (ribonucleic acid) and using primers selected on the basis of homology between other genotype 1a strains. From the determination of the entire genome sequence, a genotype 1a was assigned to the HCV isolate according to the classification of Simmonds et al. (See P Simmonds, K A Rose, S Graham, S W Chan, F McOmish, B C Dow, E A Follett, P L Yap and H Marsden, J. Clin. Microbiol., 31(6), 1493-1503 (1993)). […] The infectious clones, H77 (1a genotype) and J4L6S (1b genotype) were obtained from R. Purcell (NIH) and the sequences are published in Genbank (AAB67036, see Yanagi, M., Purcell, R. H., Emerson, S. U. and Bukh, J. Proc. Natl. Acad. Sci. U.S.A. 94(16),8738-8743 (1997); AF054247, see Yanagi, M., St Claire, M., Shapiro, M., Emerson, S. U., Purcell, R. H. and Bukh, J, Virology 244 (1), 161-172. (1998)).
NS3/4A protease complex-containing fractions were pooled and loaded on a desalting column Superdex-S200 pre-equilibrated with buffer D (25 mM HEPES, pH 7.5, 20% glycerol, 300 mM NaCl, 0.2% Triton X-100, 10 mM βME). Sample was loaded at a flow rate of 1 mL/min. NS3/4A protease complex-containing fractions were pooled and concentrated to approximately 0.5 mg/ml. The purity of the NS3/4A protease complexes, derived from the BMS, H77 and J4L6S strains, were judged to be greater than 90% by SDS-PAGE and mass spectrometry analyses. The enzyme was stored at −80° C., thawed on ice and diluted prior to use in assay buffer.
The purpose of this in vitro assay was to measure the inhibition of HCV NS3 protease complexes, derived from the BMS strain, H77 strain or J4L6S strain, as described above, by compounds of the present disclosure. This assay provides an indication of how effective compounds of the present disclosure would be in inhibiting HCV NS3 proteolytic activity.
In order to monitor HCV NS3/4A protease activity, an NS3/4A peptide substrate was used. The substrate was RET SI (Resonance Energy Transfer Depsipeptide Substrate; AnaSpec, Inc. cat #22991) (FRET peptide), described by Taliani et al. in Anal. Biochem. 240(2):60-67 (1996). […] The peptide also contains a fluorescence donor, EDANS, near one end of the peptide and an acceptor, DABCYL, near the other end. The fluorescence of the peptide is quenched by […] resonance energy transfer (RET) between the donor and the acceptor, but as the NS3 protease cleaves the peptide the products are released from RET quenching and the fluorescence of the donor becomes apparent.
The peptide substrate was incubated with one of the three recombinant NS3/4A protease complexes, in the absence or presence of a compound of the present disclosure. The inhibitory effects of a compound was determined by monitoring the formation of fluorescent reaction product in real time using a Cytofluor Series 4000. […]

Data set [2] concerns HCV replicon in HUH-7 cells. The experiment in a line: HCV replicon FRET assay. The conditions noted are these: Hepatitis C virus, Huh-7; HCV replicon; which replicon assay not stated; read-out: EC50 Activity Range. Format: cell-based, HCV strain 1b. The source says:
An HCV replicon whole cell system was established as described by Lohmann V, Korner F, Koch J, Herian U, Theilmann L, Bartenschlager R., Science 285(5424):110-3 (1999). This system enabled us to evaluate the effects of our HCV Protease compounds on HCV RNA replication. Briefly, using the HCV strain 1b sequence described in the Lohmann paper (Assession number: AJ238799), an HCV cDNA was synthesized by Operon Technologies, Inc. (Alameda, Calif.), and the full-length replicon was then assembled in plasmid pGem9zf(+) (Promega, Madison, Wis.) using standard molecular biology techniques. The replicon consists of (i) the HCV 5′ UTR fused to the first 12 amino acids of the capsid protein, (ii) the neomycin phosphotransferase gene (neo), (iii) the IRES from encephalomyocarditis virus (EMCV), and (iv) HCV NS3 to NS5B genes and the HCV 3′ UTR. Plasmid DNAs were linearized with ScaI and RNA transcripts were synthesized in vitro using the T7 MegaScript transcription kit (Ambion, Austin, Tex.) according to manufacturer's directions. In vitro transcripts of the cDNA were transfected into the human hepatoma cell line, HUH-7. […] Resulting cell lines were characterized for positive and negative strand RNA production and protein production over time.
The HCV replicon FRET assay was developed to monitor the inhibitory effects of compounds described in the disclosure on HCV viral replication. HUH-7 cells, constitutively expressing the HCV replicon, were grown in Dulbecco's Modified Eagle Media (DMEM) (Gibco-BRL) containing 10% Fetal calf serum (FCS) (Sigma) and 1 mg/ml G418 (Gibco-BRL). Cells were seeded the night before (1.5×10^4 cells/well) in 96-well tissue-culture sterile plates. Compound and no compound controls were prepared in DMEM containing 4% FCS, 1:100 Penicillin/Streptomysin (Gibco-BRL), 1:100 L-glutamine and 5% DMSO in the dilution plate (0.5% DMSO final concentration in the assay). Compound/DMSO mixes were added to the cells and incubated for 4 days at 37° C. After 4 days, cells were first assessed for cytotoxicity using alamar Blue (Trek Diagnotstic Systems) for a CC50 reading. The toxicity of compound (CC50) was determined by adding 1/10th volume of alamar Blue to the media incubating the cells. After 4 hours, the fluorescence signal from each well was read, with an excitation wavelength at 530 nm and an emission wavelength of 580 nm, using the Cytofluor Series 4000 (Perspective Biosystems). Plates were then rinsed thoroughly with Phosphate-Buffered Saline (PBS) (3 times 150 μl). The cells were lysed with 25 μl of a lysis assay reagent containing an HCV protease substrate (5× cell Luciferase cell culture lysis reagent (Promega #E153A) diluted to 1× with distilled water, NaCl added to 150 mM final, the FRET peptide substrate (as described for the enzyme assay above) diluted to 10 μM final from a 2 mM stock in 100% DMSO. […]. The plate was then placed into the Cytofluor 4000 instrument which had been set to 340 nm excitation/490 nm emission, automatic mode for 21 cycles and the plate read in a kinetic mode. EC50 determinations were carried out as described for the IC50 determinations.
In general terms: Replicon systems follow genome replication, usually without infectious particles.

Regarding `CC(C)(C)OC(=O)N[C@H]1CCCCC/C=C\[C@@H]2C[C@@]2(C(=O)NS(=O)(=O)C2CC2)NC(=O)[C@@H]2C[C@@H](Oc3ccccn3)CN2C1=O` [Compound 1], the IC50 in data set [1] was < 0.1 µM. In addition, in data set [2], the 50% effective concentration (EC50) fell in the range of 0.1 to 1 µM.

For `CC(C)(C)OC(=O)N[C@H]1CCCCC/C=C\[C@@H]2C[C@@]2(C(=O)NS(=O)(=O)C2CC2)NC(=O)[C@@H]2C[C@@H](Oc3ccc([N+](=O)[O-])cc3)CN2C1=O` [Compound 2], the IC50 in data set [1] is < 0.1 µM. Moreover, the 50% effective concentration (EC50) in data set [2] was > 1 µM.

Turning to `CC(C)(C)OC(=O)N[C@H]1CCCOC/C=C\[C@@H]2C[C@@]2(C(=O)NS(=O)(=O)C2CC2)NC(=O)[C@@H]2C[C@@H](OCc3ccccc3)CN2C1=O` [Compound 5, (1S,4R,6S,14S,18R,7-cis)-18-benzyloxy-14-tert-butoxycarbonylamino-4-cyclopropanesulfonylaminocarbonyl-2,15-dioxo-3,16-diaza-10-oxatricyclo[14.3.0.0^4,6]nonadec-7-ene], the melting point fell in the range of 147 to 149 °C. The IC50 in data set [1] is < 0.1 µM. Besides, the EC50 in data set [2] is > 1 µM.

Turning to `CC(C)(C)OC(=O)N[C@H]1CCCOC/C=C\[C@@H]2C[C@@]2(C(=O)NS(=O)(=O)C2CC2)NC(=O)[C@@H]2C[C@@H](OC(C)(C)C)CN2C1=O` [Compound 6, (1S,4R,6S,14S,18R,7-cis)-18-tert-butoxy-14-tert-butoxycarbonylamino-4-cyclopropanesulfonylaminocarbonyl-2,15-dioxo-3,16-diaza-10-oxatricyclo[14.3.0.0^4,6]nonadec-7-ene], in data set [1], the IC50 lay in the range of 0.1 to 1 µM. Moreover, the EC50 in data set [2] was > 1 µM.
